Results published in EP4603105A1, “PHARMACEUTICAL COMPOSITION CONTAINING CYCLIC COMPOUND HAVING SELECTIVE KRAS INHIBITORY EFFECT AGAINST HRAS AND NRAS” (CHUGAI SEIYAKU KABUSHIKI KAISHA, priority 2022, dated 2024).
*1 amine or outer side, *2 acyl side, *3 side chain or, on linkers, in order; H or OH if unused. Where a SMILES comes first, the peptide text is derived from it. Bridges are numbered along the chain shown (N, C = ends). [ ]: non-standard residue; d: D form. The star is where a group is joined. hPhe(3,5-F2-4-CF3) = N[C@@H](CCc1cc(F)c(C(F)(F)F)c(F)c1)C(=O)O; X38 = CC(C)CCN([C@@H](Cc1ccc(C(F)(F)F)cc1)C(=O)[*:2])[*:1]; hPhe(3-Cl-4-CF3) = N[C@@H](CCc1ccc(C(F)(F)F)c(Cl)c1)C(=O)O; NPrPhe(4-CF3) = CCCN[C@@H](Cc1ccc(C(F)(F)F)cc1)C(=O)O; NMeGly(cPent) = CN[C@H](C(=O)O)C1CCCC1; Pro(4,4-F2) = O=C(O)[C@@H]1CC(F)(F)CN1; Hyp = O=C(O)[C@@H]1C[C@@H](O)CN1; NMeD = CN[C@@H](CC(=O)O)C(=O)O; NMeL = CN[C@@H](CC(C)C)C(=O)O; αMeS = C[C@](N)(CO)C(=O)O; Morpholide = C1CN(*)CCO1; NMeA = CN[C@@H](C)C(=O)O; Ac5c = NC1(C(=O)O)CCCC1; Aze = O=C(O)[C@@H]1CCN1; NEtG = CCNCC(=O)O; Sar = CNCC(=O)O; tBu = CC(C)(C)*

Experiments:
[1] = target: GDP-bound NRAS wild-type protein (Homo sapiens, UniProt P01111); experiment: Binding to NRAS by surface plasmon resonance (SPR), KD and KD ratio to KRAS
Summary of the method: (§1)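 Single-cycle kinetics on GDP-loaded biotin-Avi RAS captured to ~100–300 RU; 75 s ascending injections, 100 µL/min, 30°C. HBS pH 7.4 + 10 mM MgCl2/10 µM GDP/4% DMSO. 1:1 fit, KD.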

HRAS wild-type protein = HRAS wild-type protein (Homo sapiens, UniProt P01112); experiment: Binding to HRAS by surface plasmon resonance (SPR), KD and KD ratio to KRAS
Summary of the method: as §1

[2] = tested on: human lung cancer strain NCI-H441; assay type: cell-based
Summary of the method: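 Proliferation was scored by […] measured after the reagent was added to cultures kept at 37°C in 5% carbon dioxide.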

[3] = ratio of the KD value with respect to GDP-bound NRAS wild-type protein to the KD value with respect to KRAS
[4] = ratio of the KD value with respect to HRAS wild-type protein to the KD value with respect to KRAS
[5] = ratio of KD for GDP-bound NRAS wild-type protein to KD for KRAS
[6] = ratio of KD for HRAS wild-type protein to KD for KRAS

HRAS wild-type protein, sequence (P01112 whole entry): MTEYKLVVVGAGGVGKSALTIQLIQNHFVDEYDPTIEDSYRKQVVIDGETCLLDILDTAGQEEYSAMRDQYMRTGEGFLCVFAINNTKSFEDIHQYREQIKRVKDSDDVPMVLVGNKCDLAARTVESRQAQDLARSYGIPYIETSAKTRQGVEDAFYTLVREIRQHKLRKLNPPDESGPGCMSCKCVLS
GDP-bound NRAS wild-type protein, sequence (P01111 whole entry): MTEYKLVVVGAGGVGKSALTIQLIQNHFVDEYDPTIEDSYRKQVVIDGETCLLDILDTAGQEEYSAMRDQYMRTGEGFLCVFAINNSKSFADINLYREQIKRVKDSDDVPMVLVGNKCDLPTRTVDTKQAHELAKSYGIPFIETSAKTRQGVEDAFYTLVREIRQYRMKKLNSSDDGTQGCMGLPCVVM

SMILES | IC50 [2] | NRAS /KRAS [1, 3] | HRAS /KRAS (HRAS wild-type protein; [4]) | NRAS /KRAS [1, 5] | HRAS /KRAS (HRAS wild-type protein; [6]) | NRAS /KRAS ([1]; ratio of KD value for GDP-bound NRAS wild-type protein to KD value for KRAS (SPR)) | HRAS /KRAS (HRAS wild-type protein; ratio of KD value for HRAS wild-type protein to KD value for KRAS (SPR))
CCCN1C(=O)CN(C)C(=O)CN(C)C(=O)[C@H]([C@@H](C)CC)NC(=O)[C@H](CC(C)C)N(C)C(=O)C[C@@H](C(=O)N2CCOCC2)NC(=O)[C@H](C2CCCC2)N(C)C(=O)C2(CCCC2)NC(=O)[C@@H]2CC(F)(F)CN2C(=O)[C@H](CCc2ccc(C(F)(F)F)c(Cl)c2)NC(=O)CN(C)C(=O)[C@@H]1Cc1ccc(C(F)(F)F)cc1 [PP0321] ([NMeL]I[Sar][Sar][NPrPhe(4-CF3)][Sar][hPhe(3-Cl-4-CF3)][Pro(4,4-F2)][Ac5c][NMeGly(cPent)]D-Morpholide; lactam N-11) | 0.0557 µM |  |  | B (a compound having 3 or more and less than 10 is denoted as B) | B (a compound having 3 or more and less than 10 is denoted as B) |  | 
CC[C@H](C)[C@@H]1NC(=O)[C@H](CC(C)C)N(C)C(=O)C[C@@H](C(=O)N2CCOCC2)N(C)C(=O)[C@H](C2CCCC2)N(C)C(=O)C2(CCCC2)NC(=O)[C@@H]2CCCN2C(=O)[C@H](CCc2ccc(C(F)(F)F)c(Cl)c2)NC(=O)CN(C)C(=O)[C@H](Cc2ccc(C(F)(F)F)cc2)N(CCC(C)C)C(=O)CN(C)C(=O)CN(C)C1=O [PP0126] ([NMeL]I[Sar][Sar][X38][Sar][hPhe(3-Cl-4-CF3)]P[Ac5c][NMeGly(cPent)][NMeD]-Morpholide; lactam N-11) | 0.0093 µM |  |  | C (A compound having a KD ratio of 0.1 or more and less than 3 is denoted as C) | C (A compound having a KD ratio of 0.1 or more and less than 3 is denoted as C) |  | 
CCCN1C(=O)CN(C)C(=O)CN(CC)C(=O)[C@H]([C@@H](C)CC)NC(=O)[C@H](CC(C)C)N(C)C(=O)C[C@@H](C(=O)N(C)C)NC(=O)[C@H](C2CCCC2)N(C)C(=O)C2(CCCC2)NC(=O)[C@@H]2CCCN2C(=O)[C@H](CCc2ccc(C(F)(F)F)c(Cl)c2)NC(=O)CN(C)C(=O)[C@@H]1Cc1ccc(C(F)(F)F)cc1 [PP0367] ([NMeL]I[NEtG][Sar][NPrPhe(4-CF3)][Sar][hPhe(3-Cl-4-CF3)]P[Ac5c][NMeGly(cPent)]D-NMe2; lactam N-11) | 0.0991 µM |  |  | B (a compound having 3 or more and less than 10 is denoted as B) | B (a compound having 3 or more and less than 10 is denoted as B) |  | 
CCCN1C(=O)[C@@H]2CCN2C(=O)[C@H](C)N(C)C(=O)[C@H]([C@@H](C)CC)NC(=O)[C@H](CC(C)C)N(C)C(=O)C[C@@H](C(=O)N2CCOCC2)N(C)C(=O)[C@H](C2CCCC2)N(C)C(=O)C2(CCCC2)NC(=O)[C@@H]2C[C@@H](O)CN2C(=O)[C@H](CCc2ccc(C(F)(F)F)c(Cl)c2)NC(=O)CN(C)C(=O)[C@@H]1Cc1ccc(C(F)(F)F)cc1 [PP0239] ([NMeL]I[NMeA][Aze][NPrPhe(4-CF3)][Sar][hPhe(3-Cl-4-CF3)][Hyp][Ac5c][NMeGly(cPent)][NMeD]-Morpholide; lactam N-11) | 0.0062 µM |  |  | C (A compound having a KD ratio of 0.1 or more and less than 3 is denoted as C) | B (a compound having 3 or more and less than 10 is denoted as B) |  | 
CCCN1C(=O)[C@@H]2CCN2C(=O)CN(C)C(=O)[C@H]([C@@H](C)CC)NC(=O)[C@H](CC(C)C)N(C)C(=O)C[C@@H](C(=O)N(C)C)N(C)C(=O)[C@H](C2CCCC2)N(C)C(=O)C2(CCCC2)NC(=O)[C@@H]2CCCN2C(=O)[C@H](CCc2ccc(C(F)(F)F)c(Cl)c2)NC(=O)CN(C)C(=O)[C@@H]1Cc1ccc(C(F)(F)F)cc1 [PP0440] ([NMeL]I[Sar][Aze][NPrPhe(4-CF3)][Sar][hPhe(3-Cl-4-CF3)]P[Ac5c][NMeGly(cPent)][NMeD]-NMe2; lactam N-11) | 0.0044 µM | C (A compound having a KD ratio of 0.1 or more and less than 3 is denoted as C) | B (a compound having 3 or more and less than 10 is denoted as B) |  |  |  | 
CCCN1C(=O)CN(C)C(=O)CN(C)C(=O)[C@H]([C@@H](C)CC)NC(=O)[C@H](CC(C)C)N(C)C(=O)C[C@@H](C(=O)N(C)C)N(C)C(=O)[C@H](C2CCCC2)N(C)C(=O)[C@](C)(COC(C)(C)C)NC(=O)[C@@H]2CCCN2C(=O)[C@H](CCc2cc(F)c(C(F)(F)F)c(F)c2)NC(=O)CN(C)C(=O)[C@@H]1Cc1ccc(C(F)(F)F)cc1 [PP0743] ([NMeL]I[Sar][Sar][NPrPhe(4-CF3)][Sar][hPhe(3,5-F2-4-CF3)]P[αMeS](tBu)[NMeGly(cPent)][NMeD]-NMe2; lactam N-11) | 0.0763 µM | B (a compound having 3 or more and less than 10 is denoted as B) | C (A compound having a KD ratio of 0.1 or more and less than 3 is denoted as C) |  |  |  | 

Further lines, with some results ahead:

IC50 [2] | SMILES | NRAS /KRAS [1, 3] | HRAS /KRAS (HRAS wild-type protein; [4]) | NRAS /KRAS [1, 5] | HRAS /KRAS (HRAS wild-type protein; [6]) | NRAS /KRAS ([1]; ratio of KD value for GDP-bound NRAS wild-type protein to KD value for KRAS (SPR)) | HRAS /KRAS (HRAS wild-type protein; ratio of KD value for HRAS wild-type protein to KD value for KRAS (SPR))
0.0314 µM | CCO[C@@H]1C[C@H]2C(=O)NC3(CC(C)(C)C3)C(=O)N(C)[C@@H](C(CC)CC)C(=O)N(C)[C@H](C(=O)N3CCCC3)CC(=O)N(C)[C@@H](C)C(=O)N[C@@H]([C@@H](C)CC)C(=O)N(C)CC(=O)N(C)[C@H]3C/C=C\CCN(C3=O)[C@@H](Cc3ccc(C)cc3)C(=O)N(C)CC(=O)N[C@@H](CCc3ccc(Cl)c(Cl)c3)C(=O)N2C1 [PP2187] | AA (a compound having 20 or more is denoted as AA) | A (a compound having 10 or more and less than 20 is denoted as A) |  |  |  | 
0.0082 µM | CCCOC[C@H]1C(=O)N[C@@H]([C@@H](C)CC)C(=O)N(C)CC(=O)N(C)[C@H]2C/C=C\CCN(C2=O)[C@@H](Cc2ccc(C(F)(F)F)cc2)C(=O)N(C)CC(=O)N[C@@H](CCc2ccc(C(F)(F)F)c(OC)c2)C(=O)N2C[C@H](OCC)C[C@H]2C(=O)NC2(CCC2)C(=O)N(C)[C@@H](C2CCCC2)C(=O)N(C)[C@H](C(=O)N(C)CC)CC(=O)N1C [PP2016] | A (a compound having 10 or more and less than 20 is denoted as A) | A (a compound having 10 or more and less than 20 is denoted as A) |  |  |  | 
0.0059 µM | CCOC[C@H]1C(=O)N[C@@H]([C@@H](C)CC)C(=O)N(C)CC(=O)N(C)[C@H]2C/C=C\CCN(C2=O)[C@@H](Cc2ccc(C(F)(F)F)cc2)C(=O)N(C)CC(=O)N[C@@H](CCc2cc(F)c(C(F)(F)F)c(F)c2)C(=O)N2C[C@@H](C)C[C@H]2C(=O)NC2(CC(C)(C)C2)C(=O)N(C)[C@@H](C2CCCC2)C(=O)N(C)[C@H](C(=O)N(C)CC)CC(=O)N1C [PP2042] | A (a compound having 10 or more and less than 20 is denoted as A) | A (a compound having 10 or more and less than 20 is denoted as A) |  |  |  | 
0.0237 µM | CCO[C@@H]1C[C@H]2C(=O)NC3(CC(C)(C)C3)C(=O)N(C)[C@@H](C(CC)CC)C(=O)N(C)[C@H](C(=O)N(C)C)CC(=O)N(C)[C@@H](CC3CC3)C(=O)N[C@@H]([C@@H](C)CC)C(=O)N(C)CC(=O)N(C)[C@H]3C/C=C\CCN(C3=O)[C@@H](Cc3ccc(C)cc3)C(=O)N(C)CC(=O)N[C@@H](CCc3ccc(C(F)(F)F)c(OC)c3)C(=O)N2C1 [PP2166] | A (a compound having 10 or more and less than 20 is denoted as A) | A (a compound having 10 or more and less than 20 is denoted as A) |  |  |  | 
0.0283 µM | CCO[C@@H]1C[C@H]2C(=O)NC3(CCC3)C(=O)N(C)[C@@H](C3CCCC3)C(=O)N(C)[C@H](C(=O)N(C)C)CC(=O)N(C)[C@@H](C)C(=O)N[C@@H]([C@@H](C)CC)C(=O)N(C)CC(=O)N(C)[C@H]3C/C=C\CCN(C3=O)[C@@H](Cc3ccc(C(F)(F)F)cc3)C(=O)N(C)CC(=O)N[C@@H](CCc3cc(F)c(C(F)(F)F)c(F)c3)C(=O)N2C1 [PP1108] |  |  | A (a compound having 10 or more and less than 20 is denoted as A) | A (a compound having 10 or more and less than 20 is denoted as A) |  | 
0.0161 µM | C#CC[C@H]1C(=O)N[C@@H]([C@@H](C)CC)C(=O)N(C)CC(=O)N(C)[C@H]2C/C=C\CCN(C2=O)[C@@H](Cc2ccc(C(F)(F)F)cc2)C(=O)N(C)CC(=O)N[C@@H](CCc2ccc(C(F)(F)F)c(OC)c2)C(=O)N2C[C@@H](C)C[C@H]2C(=O)NC2(CC(C)(C)C2)C(=O)N(C)[C@@H](C2CCCC2)C(=O)N(C)[C@H](C(=O)N(C)CC)CC(=O)N1C [PP2055] | A (a compound having 10 or more and less than 20 is denoted as A) | B (a compound having 3 or more and less than 10 is denoted as B) |  |  |  | 
0.195 µM | CCO[C@@H]1C[C@H]2C(=O)NC3(CCC3)C(=O)N(C)[C@@H](C(C)C)C(=O)N(C)[C@H](C(=O)N(C)C)CC(=O)N(C)[C@@H](CC)C(=O)N[C@@H]([C@@H](C)CC)C(=O)N(C)CC(=O)N(C)[C@H]3C/C=C\CCN(C3=O)[C@@H](Cc3ccc(C(F)(F)F)cc3)C(=O)N(C)CC(=O)N[C@@H](CCc3cc(F)c(C(F)(F)F)c(F)c3)C(=O)N2C1 [PP1088] |  |  | A (a compound having 10 or more and less than 20 is denoted as A) | A (a compound having 10 or more and less than 20 is denoted as A) |  | 
0.0041 µM | CCO[C@@H]1C[C@H]2C(=O)NC3(CC(C)(C)C3)C(=O)N(C)[C@@H](C3CCCC3)C(=O)N(C)[C@H](C(=O)N(C)CC)CC(=O)N(C)[C@@H](CC)C(=O)N[C@@H]([C@@H](C)CC)C(=O)N(C)CC(=O)N(C)[C@H]3C/C=C\CCN(C3=O)[C@@H](Cc3ccc(C(F)(F)F)cc3)C(=O)N(C)CC(=O)N[C@@H](CCc3cc(F)c(C(F)(F)F)c(F)c3)C(=O)N2C1 [PP1579] |  |  |  |  | A (a compound having 10 or more and less than 20 is denoted as A) | B (a compound having 3 or more and less than 10 is denoted as B)
